Like-named read-outs stand apart in the source and are kept apart here.
What was measured:
[1] = system: MCF-7 (breast cancer cell line); assay: MTT cell viability assay, MCF-7; type: cell-based; conditions: Homo sapiens, MCF7, 48 h, read-out: Antiproliferative Activity IC50 ± SEM, MCF-7
Procedure: (§1) The tested cells were obtained from Shanghai Institute of Biochemistry and Cell Biology of the Chinese Academy of Sciences (Shanghai, China). HeLa and Hep G2 cell lines were cultured in Dulbecco’s modified Eagle’s medium (DMEM; gibco, Life Technologies, Carlsbad, CA, USA) supplemented with 10% fetal bovine serum (FBS; Biological Industries), 100 U/mL penicillin-streptomycin (PS; gibco, Life Technologies, Carlsbad, CA, USA). MCF-7 and A549 cell lines were maintained in RPMI-1640 media (gibco, Life Technologies, Carlsbad, CA, USA) supplemented with 10% FBS and 100 U/mL PS. FaDu cell lines were cultured in minimum essential medium (MEM; Gibco, Life Technologies, Carlsbad, CA, USA) supplemented with 10% FBS and 100 U/mL PS. MCF 10A cell lines were maintained in Mammary MEGM kit (Lonza/Clonetics) supplemented with 100 ng/mL cholera toxin (Sigma, Shanghai, China). Cell lines were grown at 37 °C in a humidified atmosphere of 5% CO2.
(§2) The growth-inhibitory effects against HeLa, Hep G2, MCF-7, FaDu, and A549 cancer cells and normal cell lines MCF 10A were determined by MTT assay. […] Cells were seeded in 96 well plates at a density of 1 × 10^4 cells per well and incubated for 24 h at 37 °C in a humidified atmosphere of 5% CO2. The cells were then incubated with various concentrations of drugs for 48 h in a 5% CO2 incubator at 37 °C. After treatment with 1 mg/mL 3-(4,5-dimethylthiazol-2-yl)-2,5-diphenyltetrazolium bromide (MTT) solution for 4 h, the formazan crystals were dissolved in 100 µL DMSO in each well. Plates were read on a microplate reader (Thermo Varioskan Flash 3001) at 490 nm. The experiment was performed in triplicate. The inhibitory concentration at 50% (IC50) was calculated based on concentration-inhibition relationships via regression using SPSS software (Version 17.0).

[2] = system: FaDu (head and neck squamous carcinoma cell line); assay: MTT cell viability assay, FaDu; type: cell-based, human
Procedure: as §1, §2

[3] = system: HeLa (cervical cancer cell line); assay: MTT cell viability assay, HeLa; type: cell-based; conditions: Homo sapiens, 48 h, read-out: Antiproliferative Activity IC50 ± SEM, HeLa
Procedure: as §1, §2

[4] = system: A549 (epithelial cancer cell line); assay: MTT cell viability assay, A549; type: cell-based; conditions: Homo sapiens, 48 h, read-out: Antiproliferative Activity IC50 ± SEM, A549
Procedure: as §1, §2

[5] = system: Hep G2 (hepatocarcinoma cell line); assay: MTT cell viability assay, Hep G2; type: cell-based; conditions: Homo sapiens, HepG2, 48 h, read-out: Antiproliferative Activity IC50 ± SEM, Hep G2
Procedure: as §1, §2

[6] = system: MCF 10A (normal mammary epithelial cell); assay: MTT cell viability assay, MCF 10A; type: cell-based; conditions: Homo sapiens, 48 h, normal cells, read-out: Antiproliferative Activity IC50 ± SEM, MCF 10A
[7] = Homo sapiens, FaDu, 48 h, MTT, 48 h; read-out: Antiproliferative Activity IC50 ± SEM, FaDu
[8] = MTT, 48 h; read-out: Antiproliferative Activity IC50 ± SEM, FaDu
[9] = SI = IC50 (MCF 10A)/IC50 (FaDu)

SMILES	IC50 [1]	IC50 [2, 7]	IC50 [3]	IC50 [4]	IC50 [5]	IC50 [6]	IC50 [2, 8]	SI: selectivity index [2, 9]	IC50 ([2]; Homo sapiens, FaDu; MTT, 48 h; read-out: Antiproliferative Activity IC50 ± SEM, FaDu)
O=C(/C=C/c1ccccc1)OCCCCCCCCOC(=O)/C=C/c1ccccc1 [Compound 9g, Octane-1,8-Diyl (2E,2′E)-Bis(3-Phenylacrylate)]	> 20 µM	> 20 µM	> 20 µM	> 20 µM	> 20 µM	> 20 µM			
COc1ccc(C(=O)NCCCCCCCCCCNC(=O)c2ccc(OC)c(OC)c2OC)c(OC)c1OC [Compound 35e, N,N′-(Decane-1,10-Diyl)Bis(2,3,4-Trimethoxybenzamide)]	> 20 µM	> 20 µM	> 20 µM	> 20 µM	> 20 µM	> 20 µM			
O=C(NCCCCCCCCCCNC(=O)c1ccc2ncccc2c1)c1ccc2ncccc2c1 [Compound 18e, N,N′-(Decane-1,10-Diyl)Bis(Quinoline-6-Carboxamide)]	> 20 µM	< 1 µM	> 20 µM	> 20 µM	> 20 µM	> 20 µM	0.697 ± 0.021 µM	>28.69	
COc1cc(OC)cc(C(=O)NCCCCCCCCCCNC(=O)c2cc(OC)cc(OC)c2)c1 [Compound 33e, N,N′-(Decane-1,10-Diyl)Bis(3,5-Dimethoxybenzamide)]	> 20 µM	10.4 ± 0.949 µM	> 20 µM	> 20 µM	> 20 µM	> 20 µM		>1.92	
Cc1nc(C)c(CN(CCCCCCN(Cc2nc(C)c(C)nc2C)Cc2nc(C)c(C)nc2C)Cc2nc(C)c(C)nc2C)nc1C [Compound 6d, N^1,N^1,N^6,N^6-Tetrakis((3,5,6-Trimethylpyrazin-2-yl)Methyl)Hexane-1,6-Diamine]	> 100 µM	> 100 µM	> 100 µM	> 100 µM	> 100 µM	> 100 µM			
Cc1nc(C)c(CN(CCCN(Cc2nc(C)c(C)nc2C)Cc2nc(C)c(C)nc2C)Cc2nc(C)c(C)nc2C)nc1C [Compound 6b, N^1,N^1,N^3,N^3-Tetrakis((3,5,6-Trimethylpyrazin-2-yl)Methyl)Propane-1,3-Diamine]	> 100 µM	> 100 µM	> 100 µM	> 100 µM	> 100 µM	> 100 µM			
COc1ccc(/C=C/C(=O)NCCCCCCCCCCNC(=O)/C=C/c2ccc(OC)c(OC)c2)cc1OC [Compound 27e, (2E,2′E)-N,N′-(Decane-1,10-Diyl)Bis(3-(3,4-Dimethoxyphenyl)Acrylamide)]	> 20 µM	4.62 ± 0.539 µM	> 20 µM	> 20 µM	> 20 µM	> 20 µM		>4.33	
COc1ccc(/C=C/C(=O)NCCCCCCCCCCNC(=O)/C=C/c2ccc(OC)c(O)c2)cc1O [Compound 26e, (2E,2′E)-N,N′-(Decane-1,10-Diyl)Bis(3-(3-Hydroxy-4-Methoxyphenyl)Acrylamide)]	> 20 µM	> 20 µM	> 20 µM	> 20 µM	> 20 µM	> 20 µM			
Cc1nc(C)c(CN2CCN(Cc3nc(C)c(C)nc3C)CC2)nc1C [Compound 6h, 1,4-Bis((3,5,6-Trimethylpyrazin-2-yl)Methyl)Piperazine]	> 100 µM	> 100 µM	> 100 µM	> 100 µM	> 100 µM	> 100 µM			
Cn1cc(C(=O)NCCCCCCCCCCNC(=O)c2cn(C)c3ccccc23)c2ccccc21 [Compound 23e, N,N′-(Decane-1,10-Diyl)Bis(1-Methyl-1H-Indole-3-Carboxamide)]	> 20 µM	< 1 µM	> 20 µM	> 20 µM	> 20 µM	> 20 µM	0.638 ± 0.089 µM	>31.35	
Nc1ccccc1C(=O)NCCCCCCCCCCNC(=O)c1ccccc1N [Compound 30e, N,N′-(Decane-1,10-Diyl)Bis(2-Aminobenzamide)]	> 20 µM	> 20 µM	> 20 µM	> 20 µM	> 20 µM	> 20 µM			
O=C(/C=C/c1ccccc1)OCCCCCCCCCCCCOC(=O)/C=C/c1ccccc1 [Compound 9i, Dodecane-1,12-Diyl (2E,2′E)-Bis(3-Phenylacrylate)]	> 20 µM	> 20 µM	> 20 µM	> 20 µM	> 20 µM	> 20 µM			
Cc1nc(C)c(C(=O)NCCCCCCCCCCCCNC(=O)c2nc(C)c(C)nc2C)nc1C [Compound 8f, N,N′-(Dodecane-1,12-Diyl)Bis(3,5,6-Trimethylpyrazine-2-Carboxamide)]	0.158 ± 0.009 µM	0.174 ± 0.01 µM	4.96 ± 1.62 µM	2.46 ± 0.05 µM	> 20 µM	0.051 ± 0.021 µM		0.29	
Nc1ccc(C(=O)NCCCCCCCCCCNC(=O)c2ccc(N)cc2)cc1 [Compound 31e, N,N′-(Decane-1,10-Diyl)Bis(4-Aminobenzamide)]	> 20 µM	5.59 ± 0.628 µM	> 20 µM	> 20 µM	> 20 µM	> 20 µM		>3.58	
O=C(/C=C/c1ccccc1)OCCOCCOCCOCCOC(=O)/C=C/c1ccccc1 [Compound 9m, ((Oxybis(Ethane-2,1-Diyl))Bis(Oxy))Bis(Ethane-2,1-Diyl) (2E,2′E)-bis(3-Phenylacrylate)]	> 20 µM	> 20 µM	> 20 µM	> 20 µM	> 20 µM	> 20 µM			
O=C(/C=C/c1ccccc1)NCCCCCCCCCCCCNC(=O)/C=C/c1ccccc1 [Compound 9f, (2E,2′E)-N,N′-(Dodecane-1,12-Diyl)Bis(3-Phenylacrylamide)]	> 20 µM	0.027 ± 0.002 µM	> 20 µM	> 20 µM	> 20 µM	> 20 µM		>740.74	
O=C(/C=C/c1ccccc1)NCCCCCCCCCCNC(=O)/C=C/c1ccccc1 [Compound 9e, (2E,2′E)-N,N′-(Decane-1,10-Diyl)Bis(3-Phenylacrylamide)]	> 100 µM		> 100 µM	11.3 ± 0.81 µM	> 100 µM	> 100 µM		>1851.85	
Cc1nc(C)c(C)nc1C [TMP, 2,3,5,6-tetramethylpyrazine, reference compound]	> 100 µM	> 100 µM	> 100 µM	> 100 µM	> 100 µM	> 100 µM			
O=C(NCCCCCCCCCCNC(=O)c1ccc2nc[nH]c2c1)c1ccc2nc[nH]c2c1 [Compound 19e, N,N′-(Decane-1,10-Diyl)Bis(1H-Benzo[d]Imidazole-6-Carboxamide)]	> 20 µM	8.74 ± 0.44 µM	> 20 µM	> 20 µM	> 20 µM	> 20 µM		>2.29	
O=C(NCCCCCCCCCCNC(=O)c1ccco1)c1ccco1 [Compound 14e, N,N′-(Decane-1,10-Diyl)Bis(Furan-2-Carboxamide)]	> 100 µM	6.33 ± 0.65 µM	> 100 µM	44.37 ± 0.29 µM	97.8 ± 1.55 µM	19.8 ± 1.41 µM		3.13	
COc1cccc2c1C(=O)c1c(O)c3c(c(O)c1C2=O)C[C@@](O)(C(=O)CO)C[C@@H]3O[C@H]1C[C@H](N)[C@H](O)[C@H](C)O1 [DOX, doxorubicin, reference compound]	6 ± 0.07 µM		11.4 ± 0.48 µM	> 100 µM	28 ± 1.09 µM	0.55 ± 0.03 µM			1.27 ± 0.13 µM
O=C(/C=C/c1ccccc1)NCCCCCCCCNC(=O)/C=C/c1ccccc1 [Compound 9d, (2E,2′E)-N,N′-(Octane-1,8-Diyl)Bis(3-Phenylacrylamide)]	> 20 µM	1.05 ± 0.091 µM	> 20 µM	> 20 µM	> 20 µM	> 20 µM		>18.98	
